According to the supplement of paper PMC10307832:

How the values were obtained:
Assay in all cases: relative viability (nuclei count vs DMSO), 5 days (fraction); higher = more cells survive
[1] = compound: COc1ncc(-c2ccc3nccc(-c4ccnnc4)c3c2)cc1NS(=O)(=O)c1ccc(F)cc1F [Omipalisib] + CS(=O)(=O)N1CCN(Cc2cc3nc(-c4cccc5[nH]ncc45)nc(N4CCOCC4)c3s2)CC1 [Pictilisib] (partner 1 µM)
How it was run: (§1)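 For relative viability, nuclei counts in treated wells were divided by those in vehicle wells. Lung cancer cell lines had been pin-tool dosed in 1536-well plates the day after seeding and cultured for 5 days, then fixed and stained in one step (final 0.05% Triton X-100, 1% formaldehyde, 1 ug/ml Hoechst) and imaged at 4×. Doses were one drug alone or a fixed anchor-drug dose plus five library-drug doses (not always all listed) in √10 steps, and values are duplicate-plate medians.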

[2] = compound: COc1ncc(-c2ccc3nccc(-c4ccnnc4)c3c2)cc1NS(=O)(=O)c1ccc(F)cc1F [Omipalisib] + C[C@]1(O)C[C@@H](c2nc(-c3ccc4ccc(-c5ccccc5)nc4c3)c3c(N)nccn32)C1 [Linsitinib] (partner 1 µM)
How it was run: as §1

[3] = compound: COc1ncc(-c2ccc3nccc(-c4ccnnc4)c3c2)cc1NS(=O)(=O)c1ccc(F)cc1F [Omipalisib] + Cc1nc(Nc2ncc(C(=O)Nc3c(C)cccc3Cl)s2)cc(N2CCN(CCO)CC2)n1 [Dasatinib] (partner 0.075 µM)
How it was run: as §1

[4] = compound: COc1ncc(-c2ccc3nccc(-c4ccnnc4)c3c2)cc1NS(=O)(=O)c1ccc(F)cc1F [Omipalisib] + NC(=O)Nc1cc(-c2cccc(F)c2)sc1C(=O)N[C@H]1CCCNC1 [AZD7762] (partner 0.2 µM)
How it was run: as §1

[5] = compound: COc1ncc(-c2ccc3nccc(-c4ccnnc4)c3c2)cc1NS(=O)(=O)c1ccc(F)cc1F [Omipalisib] + Nc1ncn([C@H]2C[C@H](O)[C@@H](CO)O2)c(=O)n1 [Decitabine] (partner 2 µM)
How it was run: as §1

[6] = compound: COc1ncc(-c2ccc3nccc(-c4ccnnc4)c3c2)cc1NS(=O)(=O)c1ccc(F)cc1F [Omipalisib] + O=C(CCCCCCC(=O)Nc1ccccc1)NO [Vorinostat] (partner 1 µM)
How it was run: as §1

Row | Cell Line | relative viability ([1]; first compound 0.0003 µM) | relative viability ([1]; first compound 0.003 µM) | relative viability ([1]; first compound 0.03 µM) | relative viability ([2]; first compound 0.0003 µM) | relative viability ([2]; first compound 0.003 µM) | relative viability ([2]; first compound 0.03 µM) | relative viability ([3]; first compound 0.0003 µM) | relative viability ([3]; first compound 0.003 µM) | relative viability ([3]; first compound 0.03 µM) | relative viability ([4]; first compound 0.0003 µM) | relative viability ([4]; first compound 0.003 µM) | relative viability ([4]; first compound 0.03 µM) | relative viability ([5]; first compound 0.0003 µM) | relative viability ([5]; first compound 0.003 µM) | relative viability ([5]; first compound 0.03 µM) | relative viability ([6]; first compound 0.0003 µM) | relative viability ([6]; first compound 0.003 µM) | relative viability ([6]; first compound 0.03 µM)
1 | NCI-H3122 | 0.538 | 0.472 | 0.475 | 1.11 | 0.699 | 0.392 | 0.641 | 0.0596 | 0.315 | 1.01 | 0.613 | 0.432 | 0.319 | 0.258 | 0.139 | 0.752 | 0.713 | 0.399
2 | EPLC-272H | 0.403 | 0.377 | 0.298 | 1.38 | 0.893 | 0.248 | 0.387 | 0.239 | 0.113 | 0.149 | 0.213 | 0.167 | 0.346 | 0.269 | 0.172 | 0.586 | 0.295 | 0.129
3 | NCI-H1793 | 0.348 | 0.344 | 0.293 | 0.648 | 0.416 | 0.288 | 0.331 | 0.279 | 0.273 | 0.402 | 0.215 | 0.263 | 0.398 | 0.282 | 0.214 | 0.649 | 0.438 | 0.231
4 | COR-L 105 | 0.349 | 0.356 | 0.299 | 0.963 | 0.835 | 0.717 | 0.301 | 0.287 | 0.186 |  |  |  | 0.593 | 0.589 | 0.556 | 0.853 | 0.809 | 0.568
